Measured values taken from US12570642B2, “GLP-IR modulating compounds” (Gilead Sciences, Inc., priority 2021, dated 2026).

target: GLP-1R (Homo sapiens, UniProt P43220); assay: GLP-1R Activation - cAMP Assay; assay type: cell-based; settings: […]; each compound run on one of the two cAMP assays (Assay 1 or Assay 2, not specified)
Procedure: GLP-1R Activation—cAMP Assay 1
GLP-1R activation by compounds of the present disclosure were quantified by measuring cAMP increase in CHO cells stably expressing GLP-1R (MultiSpan product #C1267-1a). The cells were harvested and plated in growth medium (DMEM/F-12 (Corning product #10-090-CV) supplemented with 10% FBS (HyClone product #SH30071-03), penicillin/streptomycin (Corning product #30-002CI) and 10 μg/ml puromycin (Gibco product #A11138-03)) at 1,000 cells/well in a 384-well plate (Greiner product #781080). The cells were then incubated overnight at 37° C., 5% CO2. The next day, the medium was removed and the cells were washed with DPBS (Corning product #21-031-CM) before adding the assay medium (HBSS, Corning product #21-023-CV) with 20 mM Hepes (Gibco product #15630-080) and 0.1% BSA (Rockland Immunochemicals product #BSA-1000)). Following the medium change, the cells were incubated for 1 hour at 37° C., 5% CO2. The tested GLP-1 compound was added to the cells in a 10-point dose response followed by a 30 minutes incubation at 37° C., 5% CO2. cAMP concentration increase was then detected using Cisbio's cAMP Gs Dynamic Kit (product #62AM4PEC) according to the manufacturer's protocol. The response was plotted against the log of the agonist concentration and fitted to a sigmoidal equation to determine the EC50.

Chain of GLP-1R (P43220 24-463): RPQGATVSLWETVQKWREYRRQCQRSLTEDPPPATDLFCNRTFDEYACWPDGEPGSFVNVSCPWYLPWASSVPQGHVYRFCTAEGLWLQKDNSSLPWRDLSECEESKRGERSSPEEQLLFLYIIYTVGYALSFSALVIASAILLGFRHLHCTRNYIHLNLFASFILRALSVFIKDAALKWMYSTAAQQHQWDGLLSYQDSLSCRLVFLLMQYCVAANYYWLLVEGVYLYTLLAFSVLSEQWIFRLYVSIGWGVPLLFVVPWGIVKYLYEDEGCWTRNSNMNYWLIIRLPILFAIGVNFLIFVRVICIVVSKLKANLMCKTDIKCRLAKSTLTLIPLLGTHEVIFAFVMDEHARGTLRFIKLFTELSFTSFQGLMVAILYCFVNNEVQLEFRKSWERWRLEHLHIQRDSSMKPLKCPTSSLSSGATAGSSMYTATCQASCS

**Q.** Which EC50 does the source give for `CC(C)(C)OC(=O)N[C@@H]1COC[C@@H]1n1c(Cc2cc(F)c(-c3cccc(OCc4ccc(C#N)cc4F)n3)cc2F)nc2ccc(C(=O)O)cc21` (racemic) [Example 72, 1-((3R,4S)-4-((tert-butoxycarbonyl)amino)tetrahydrofuran-3-yl)-2-(4-(6-((4-cyano-2-fluorobenzyl)oxy)pyridin-2-yl)-2,5-difluorobenzyl)-1H-benzo[d]imidazole-6-carboxylic Acid] here?
**A.** 37 nM

same assay, conditions: cAMP increase in CHO cells stably expressing GLP-1R; each compound run on one of the two cAMP assays (Assay 1 or Assay 2, not specified)

**Q.** With `C[C@H]1OCC[C@H]1n1c(Cc2cc(F)c(-c3cccc(OCc4ccc(C#N)cc4F)n3)cc2F)nc2ccc(C(=O)O)cc21` (racemic) [Example 73, 2-(4-(6-((4-cyano-2-fluorobenzyl)oxy)pyridin-2-yl)-2,5-difluorobenzyl)-1-((2R,3R)-2-methyltetrahydrofuran-3-yl)-1H-benzo[d]imidazole-6-carboxylic Acid] as the molecule, how does the EC50 read?
**A.** 2.4 nM

**Q.** With `CNC(=O)[C@@H]1COC[C@@H]1n1c(Cc2cc(F)c(-c3cccc(OCc4ccc(C#N)cc4F)n3)cc2F)nc2ccc(C(=O)O)cc21` (racemic) [Example 75, 2-(4-(6-((4-cyano-2-fluorobenzyl)oxy)pyridin-2-yl)-2,5-difluorobenzyl)-1-((3R,4S)-4-(methylcarbamoyl)tetrahydrofuran-3-yl)-1H-benzo[d]imidazole-6-carboxylic Acid] as the molecule, how does the EC50 read?
**A.** 15.6 nM

**Q.** How did the EC50 turn out when `CN(C)C(=O)[C@@H]1COC[C@@H]1n1c(Cc2cc(F)c(-c3cccc(OCc4ccc(C#N)cc4F)n3)cc2F)nc2ccc(C(=O)O)cc21` (racemic) [Example 76, 2-(4-(6-((4-cyano-2-fluorobenzyl)oxy)pyridin-2-yl)-2,5-difluorobenzyl)-1-((3R,4S)-4-(dimethylcarbamoyl)tetrahydrofuran-3-yl)-1H-benzo[d]imidazole-6-carboxylic Acid] was run?
**A.** 100 nM

**Q.** With `N#Cc1ccc(COc2cccc(-c3cc(F)c(Cc4nc5ccc(C(=O)O)cc5n4[C@@H]4COC[C@H]4F)cc3F)n2)c(F)c1` (racemic) [Example 77, 2-(4-(6-((4-cyano-2-fluorobenzyl)oxy)pyridin-2-yl)-2,5-difluorobenzyl)-1-((3R,4S)-4-fluorotetrahydrofuran-3-yl)-1H-benzo[d]imidazole-6-carboxylic Acid] as the molecule, how does the EC50 read?
**A.** 1.91 nM

**Q.** How did the EC50 turn out when `COC[C@H]1COC[C@H]1n1c(Cc2cc(F)c(-c3cccc(OCc4ccc(C#N)cc4F)n3)cc2F)nc2ccc(C(=O)O)cc21` (racemic) [Example 184, 2-(4-(6-((4-cyano-2-fluorobenzyl)oxy)pyridin-2-yl)-2,5-difluorobenzyl)-1-((3S,4S)-4-(methoxymethyl)tetrahydrofuran-3-yl)-1H-benzo[d]imidazole-6-carboxylic Acid] was run?
**A.** 0.157 nM

**Q.** With `N#Cc1ccc(COc2cccc(-c3cc(F)c(Cc4nc5ccc(C(=O)O)cc5n4C4COC[C@@H]4CO)cc3F)n2)c(F)c1` (mixture of isomers) [Example 216, 2-(4-(6-((4-cyano-2-fluorobenzyl)oxy)pyridin-2-yl)-2,5-difluorobenzyl)-1-((3S,4S)-4-(hydroxymethyl)tetrahydrofuran-3-yl)-1H-benzo[d]imidazole-6-carboxylic acid] as the molecule, how does the EC50 read?
**A.** 0.056 nM

**Q.** For `N#Cc1ccc(COc2cccc(-c3cc(F)c(Cc4nc5ccc(C(=O)O)cc5n4C4COC[C@H]4CO)cc3F)n2)c(F)c1` (mixture of isomers) [Example 217, 2-(4-(6-((4-cyano-2-fluorobenzyl)oxy)pyridin-2-yl)-2,5-difluorobenzyl)-1-((3S,4R)-4-(hydroxymethyl)tetrahydrofuran-3-yl)-1H-benzo[d]imidazole-6-carboxylic acid], which EC50 is on record?
**A.** 1.11 nM

**Q.** For `CO[C@@H]1COCC1n1c(Cc2cc(F)c(-c3cccc(OCc4ccc(C#N)cc4F)n3)cc2F)nc2c(F)cc(C(=O)O)cc21` (mixture of isomers) [Example 256, 2-(4-(6-((4-cyano-2-fluorobenzyl)oxy)pyridin-2-yl)-2,5-difluorobenzyl)-4-fluoro-1-((4S)-4-methoxytetrahydrofuran-3-yl)-1H-benzo[d]imidazole-6-carboxylic acid], which EC50 is on record?
**A.** 0.117 nM
